Assay results published in BindingDB's records for doi:10.1016/j.bmcl.2013.08.079 (Saint John'S University, 2013).

Target: Low molecular weight phosphotyrosine protein phosphatase (Homo sapiens) (UniProt P24666)
Experiment: Noncompetitive inhibition of human GST-tagged LMW-PTP-B expressed in Escherichia coli JM 109 cells using p-nitrophenyl phosphate as substrate after 15 mins by microplate reader analysis

Low molecular weight phosphotyrosine protein phosphatase (Homo sapiens), sequence (P24666 whole entry, looked up): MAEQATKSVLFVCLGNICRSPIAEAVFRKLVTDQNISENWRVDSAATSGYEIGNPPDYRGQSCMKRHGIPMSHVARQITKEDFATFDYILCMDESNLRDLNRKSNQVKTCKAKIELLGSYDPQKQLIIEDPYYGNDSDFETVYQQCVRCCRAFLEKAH

Compound	Ki [µM]
O=C(O)c1nc2nc(Cl)c(Cl)nc2[nH]1	26
CC(=O)Nc1c(C)cc(OCC(=O)O)cc1C	73.2
